Laboratory results taken from publication PMC8926291 (Chemical Science, 2022).
Starred links: 1 amine or outer side, 2 acyl side, 3 side chain; linkers in the order of their positions; H or OH if unused. Positions of bridges follow the written chain, without caps; N, C: chain ends. Residues, ends and D or L forms follow the SMILES beside them. *: point of attachment. C18 diacid = O=C(O)CCCCCCCCCCCCCCCCC(=O)*; γGlu = O=C(O)[C@H](CCC(=O)[*:2])N[*:1]; AEEA = NCCOCCOCC(=O)O

How the values were obtained:
[1] = target: T1, hGIP-R ECD (Homo sapiens, UniProt P48546); assay: single-concentration BLI binding of crude peptides to biotinylated hGIP-R ECD
T1 sequence (P48546 22-138): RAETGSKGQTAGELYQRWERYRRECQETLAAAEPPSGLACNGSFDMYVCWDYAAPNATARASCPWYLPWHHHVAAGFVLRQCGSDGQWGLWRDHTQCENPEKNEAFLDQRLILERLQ

[2] = pharmacokinetic study in rats, i.v. dosing; type: in vivo; settings: male, Sprague-Dawley, rat, plasma, iv, 2 nmol/kg, mean
[3] = in vitro plasma stability in human plasma; settings: 37 °C, over 5 h
[4] = target: T1, hGIP-R ECD; assay: multi-concentration BLI binding of purified peptides to hGIP-R ECD
[5] = cited from earlier work

Molecule	In vitro plasma stability (in words) [3]	binding to hGIP-R ECD (in words) [4]	also measured
CSCC[C@H](NC(C)=O)C(=O)N[C@H]1CSSC[C@@H](C(=O)NCC(=O)N[C@@H](CO)C(=O)NCC(=O)N[C@@H](CO)C(=O)N[C@@H](CC(=O)O)C(=O)N[C@@H](Cc2ccc(O)cc2)C(=O)N[C@@H](CCCCN)C(=O)N[C@@H](CC(=O)O)C(=O)N[C@@H](CC(=O)O)C(=O)N[C@@H](CC(=O)O)C(=O)N[C@@H](CC(=O)O)C(=O)N[C@@H](CCCCN)C(N)=O)NC(=O)[C@H](Cc2ccccc2)NC(=O)[C@@H]2CCCN2C(=O)[C@H](Cc2c[nH]c3ccccc23)NC(=O)[C@H](CC(C)C)NC(=O)[C@H](CC(C)C)NC(=O)[C@H](CO)NC(=O)[C@H](Cc2ccccc2)NC(=O)[C@H](Cc2ccccc2)NC(=O)[C@H](CCCNC(=N)N)NC(=O)[C@H](Cc2ccccc2)NC1=O [B_68] (Ac-MCFRFFSLLWPFCGSGSDYKDDDDK-NH2; disulfide 2-13)			binding to hGIP-R ECD (in words) [1]: did not reveal any binding
CSCC[C@H](NC(=O)COCCOCCNC(=O)COCCOCCNC(=O)CC[C@H](NC(=O)CCCCCCCCCCCCCCCCC(=O)O)C(=O)O)C(=O)N[C@H]1CSSC[C@@H](C(=O)NCC(=O)N[C@@H](CO)C(=O)NCC(=O)N[C@@H](CO)C(=O)N[C@@H](CC(=O)O)C(=O)N[C@@H](Cc2ccc(O)cc2)C(=O)N[C@@H](CCCCN)C(=O)N[C@@H](CC(=O)O)C(=O)N[C@@H](CC(=O)O)C(=O)N[C@@H](CC(=O)O)C(=O)N[C@@H](CC(=O)O)C(=O)N[C@@H](CCCCN)C(N)=O)NC(=O)[C@H](Cc2ccccc2)NC(=O)[C@@H]2CCCN2C(=O)[C@H](Cc2c[nH]c3ccccc23)NC(=O)[C@H](CC(C)C)NC(=O)[C@H](CCSC)NC(=O)[C@H](Cc2c[nH]cn2)NC(=O)[C@H](Cc2ccccc2)NC(=O)[C@H](Cc2c[nH]cn2)NC(=O)[C@H]([C@@H](C)O)NC(=O)[C@H](Cc2ccccc2)NC1=O [B_1275.1] ({C18 diacid-γGlu-AEEA-AEEA}-MCFTHFHMLWPFCGSGSDYKDDDDK-NH2; disulfide 2-13)			half-life ([2]; t½ (h)): 10.7 h
CSCC[C@H](NC(=O)COCCOCCNC(=O)COCCOCCNC(=O)CC[C@H](NC(=O)CCCCCCCCCCCCCCCCC(=O)O)C(=O)O)C(=O)N[C@H]1CSSC[C@@H](C(N)=O)NC(=O)[C@H](Cc2ccccc2)NC(=O)[C@@H]2CCCN2C(=O)[C@H](Cc2c[nH]c3ccccc23)NC(=O)[C@H](CC(C)C)NC(=O)[C@H](CCSC)NC(=O)[C@H](Cc2c[nH]cn2)NC(=O)[C@H](Cc2ccccc2)NC(=O)[C@H](Cc2c[nH]cn2)NC(=O)[C@H]([C@@H](C)O)NC(=O)[C@H](Cc2ccccc2)NC1=O [B_1275.3] ({C18 diacid-γGlu-AEEA-AEEA}-MCFTHFHMLWPFC-NH2; disulfide 2-13)	no decrease in plasma stability		
CC(=O)N[C@@H](C)C(=O)N[C@H]1CSSC[C@@H](C(=O)NCC(=O)N[C@@H](CO)C(=O)NCC(=O)N[C@@H](CO)C(=O)N[C@@H](CC(=O)O)C(=O)N[C@@H](Cc2ccc(O)cc2)C(=O)N[C@@H](CCCCN)C(=O)N[C@@H](CC(=O)O)C(=O)N[C@@H](CC(=O)O)C(=O)N[C@@H](CC(=O)O)C(=O)N[C@@H](CC(=O)O)C(=O)N[C@@H](CCCCN)C(N)=O)NC(=O)[C@H](Cc2ccccc2)NC(=O)[C@@H]2CCCN2C(=O)[C@H](Cc2c[nH]c3ccccc23)NC(=O)[C@H](CC(C)C)NC(=O)[C@H](CC(C)C)NC(=O)[C@H](CC(=O)O)NC(=O)[C@H](Cc2ccccc2)NC(=O)[C@H](Cc2c[nH]cn2)NC(=O)[C@H]([C@@H](C)O)NC(=O)[C@H](Cc2ccccc2)NC1=O [B_1275.4] (Ac-ACFTHFDLLWPFCGSGSDYKDDDDK-NH2; disulfide 2-13)	no decrease in plasma stability		half-life ([2]; t½ (min)): 0.0583 h
CC(=O)N[C@@H](C)C(=O)N[C@H]1CSSC[C@@H](C(=O)O)NC(=O)[C@H](Cc2ccccc2)NC(=O)[C@@H]2CCCN2C(=O)[C@H](Cc2c[nH]c3ccccc23)NC(=O)[C@H](CC(C)C)NC(=O)[C@H](CC(C)C)NC(=O)[C@H](CC(=O)O)NC(=O)[C@H](Cc2ccccc2)NC(=O)[C@H](Cc2c[nH]cn2)NC(=O)[C@H]([C@@H](C)O)NC(=O)[C@H](Cc2ccccc2)NC1=O [B_1275.5] (Ac-ACFTHFDLLWPFC-OH; disulfide 2-13)	no decrease in plasma stability		half-life ([2]; t½ (min)): 0.03 h
CC(C)C[C@@H]1NC(=O)[C@H](CC(=O)O)NC(=O)[C@H](Cc2ccccc2)NC(=O)[C@H](Cc2c[nH]cn2)NC(=O)[C@H]([C@@H](C)O)NC(=O)[C@H](Cc2ccccc2)NC(=O)[C@@H](NC(=O)[C@H](C)NC(=O)COCCOCCNC(=O)COCCOCCNC(=O)CC[C@H](NC(=O)CCCCCCCCCCCCCCCCC(=O)O)C(=O)O)CSSC[C@@H](C(=O)O)NC(=O)[C@H](Cc2ccccc2)NC(=O)[C@@H]2CCCN2C(=O)[C@H](Cc2c[nH]c3ccccc23)NC(=O)[C@H](CC(C)C)NC1=O [B_1275.6] ({C18 diacid-γGlu-AEEA-AEEA}-ACFTHFDLLWPFC-OH; disulfide 2-13)	no decrease in plasma stability		half-life ([2]; t½ (h)): 4.2 h
CC(=O)N[C@@H](C)C(=O)N[C@H]1CSSC[C@@H](C(=O)NCC(=O)N[C@@H](CO)C(=O)NCC(=O)N[C@@H](CO)C(=O)N[C@@H](CC(=O)O)C(=O)N[C@@H](Cc2ccc(O)cc2)C(=O)N[C@@H](CCCCN)C(=O)N[C@@H](CC(=O)O)C(=O)N[C@@H](CC(=O)O)C(=O)N[C@@H](CC(=O)O)C(=O)N[C@@H](CC(=O)O)C(=O)N[C@@H](CCCCN)C(N)=O)NC(=O)[C@@H]2CCCN2C(=O)[C@@H]2CCCN2C(=O)[C@H](Cc2c[nH]c3ccccc23)NC(=O)[C@H](CC(C)C)NC(=O)[C@H](CC(C)C)NC(=O)[C@H](Cc2c[nH]cn2)NC(=O)[C@H](Cc2ccccc2)NC(=O)[C@H](Cc2c[nH]cn2)NC(=O)[C@H]([C@@H](C)O)NC(=O)[C@H](Cc2ccccc2)NC1=O [B_1275.10] (Ac-ACFTHFHLLWPPCGSGSDYKDDDDK-NH2; disulfide 2-13)		did not show any binding	
Ac-MSFIHWDMLWPFSGSGSDYKDDDDK-NH2 [B_5.2]		None of the linear variants	
Ac-MSFQYFHILWPFSGSGSDYKDDDDK-NH2 [B_3.2]		None of the linear variants	
Ac-MSFRFFSLLWPFSGSGSDYKDDDDK-NH2 [B_68.2]		None of the linear variants	
Ac-MSFTHFHMLWPFSGSGSDYKDDDDK-NH2 [B_1275.2]		None of the linear variants	
semaglutide			t1/2 in rats [5]: 7 h
